Measured values taken from patent publication US11535599B2, “Benzisoxazole derivative” (Sumitomo Pharma Co., Ltd., priority 2020, dated 2022).

How the values were obtained:
human Cav3.1 = human Cav3.1 (Homo sapiens (Human), UniProt O43497); assay: T-type calcium channel inhibitory activity, whole-cell patch-clamp with HEK293 cell; assay type: cell-based; conditions: for IC50: dose-reactive test, read-out: Cav3.1 IC50 (parenthesized)
Protocol: (§1) The inhibitory activity of the present compounds for T-type calcium channel was measured by whole-cell patch-clamp method with HEK293 cell (vendor of HEK 293 cell: ATCC, Manassas, Va., USA, builder of expressing cell: ChanTest Corporation., Cleveland, Ohio, USA), in which human Cav3.1, human Cav3.2, or human Cav3.3 is expressed. The culture medium used for HEK293 cell was prepared by adding fetal bovine serum (10%), sodium penicillin G (100 U/mL), streptomycin sulfate (100 μg/mL), and G418 (500 μg/mL) to a mixture medium of Dulbecco's modified Eagle's medium/Ham's F-12 medium. The whole-cell current was evaluated with IonWorks Barracuda system and Population Patch Clamp (both are provided by Molecular Device Corporation, Union City, Calif., USA). The extracellular recording solution used during the recording was Hanks' balanced salt solution. The internal recording solution used herein was 50 mmol/L CsCl, 90 mmol/L CsF, 5 mmol/L MgCl2, 1 mmol/L glycol ether diamine tetraacetic acid (EGTA), and 10 mmol/L 4-(2-hydroxyethyl)piperazine-1-ethanesulfonic acid (HEPES (pH 7.2). The holding voltage was held at −90 mV, then changed to −65 mV. 60 seconds later, −20 mV pulse was added thereto for 200 millisecond to activate the channel on plasma membrane and generate calcium current. The calcium current was recorded with an amplifier of IonWorks Barracuda system, and analyzed with a program of the system (Version 2.0.2). The record of the calcium current was obtained twice, before and after the addition of the compound. In the measurement after adding the compound, the cells were exposed to the recording solution containing the compound for more than 5 minutes and then the current was measured. In the analyses, the ratio of current readout after the compound addition per current readout before the compound addition was calculated, the calculated value was subtracted from one, and the obtained value was converted to percentage. […] The value obtained from each compound was canonicalized based on the two ends of values to obtain each inhibitory rate. The positive control compound used herein was TTA-A2 which is known as T-type calcium channel inhibitor. IC50 value was calculated with Hill equation.
(§2) Each inhibitory rate (%) against T-type calcium channel at the evaluation concentration of the present compound (600 μmol/L) is shown in Table 12, in which the parenthesized values are IC50 values (μmol/L)) calculated from the dose-reactive test.

human Cav3.2 = human Cav3.2 (Homo sapiens (Human), UniProt O95180); assay: as above; assay type: cell-based; conditions: for IC50: dose-reactive test, read-out: Cav3.2 IC50 (parenthesized)
Protocol: as §1, §2

human Cav3.3 = human Cav3.3 (Homo sapiens (Human), UniProt Q9P0X4); assay: as above; assay type: cell-based; conditions: for IC50: dose-reactive test, read-out: Cav3.3 IC50 (parenthesized)
Protocol: as §1, §2

[1] = test system: harmaline-induced essential tremor model; assay: Anti-tremor effect in harmaline-induced essential tremor model; assay type: in vivo, mouse; conditions: Examples 1, 13: 25 or 50 mg/kg, Example 14: 3.125-25 mg/kg oral; β-propranolol 10 mg/kg i.p.
Protocol: As an animal model of essential tremor, an animal administrated with harmaline is broadly used in its evaluation test. […] The effect of the present compounds for harmaline-acute-administration-induced tremor was studied. To male Crl: CD1 mice (6-7 weeks old) (CHARLES RIVER LABORATORIES JAPAN, INC.), harmaline (30 mg/kg) was intraperitoneally administered to induce tremor. The present compound (Example 1 (25 mg/kg or 50 mg/kg), Example 13 (25 mg/kg or 50 mg/kg), or Example 14 (3.125 mg/kg, 6.25 mg/kg, 12.5 mg/kg, or 25 mg/kg)) was orally administered to the mouse one hour before the administration of harmaline. And, saline or β-propranolol (10 mg/kg) which is a positive control compound was intraperitoneally administered to the mouse 20 minutes before the administration of harmaline. 35 minutes before the administration of harmaline, the mouse was put into a measurement cage (an acrylic cylinder set in a horizontal direction, φ 65 mm, length 145 mm), one cage to one mouse, said measurement cage was in a soundproof box of a startle response instrument (O'hara & Co., Ltd., Tokyo). The trembling that the mouse gave were recorded over time as tremor data. The animal was put into cage, and the data were recorded for 20 minutes just before (PRE) and just after (POST) the administration of harmaline. The time-series signal data were analyzed about frequency with an analysis software, VitalTracer and BIMUTAS II-A (both, Kissei Comtech Co., Ltd., Matsumoto-shi). At 12-15 Hz or 12-18 Hz as a frequency which increases with tremor, the spectrum amounts were extracted, and the tremor intensity T of each subject was calculated according to the following formula. T=POST/PRE

human CA-II = human CA-II (Homo sapiens (Human), UniProt P00918); assay: Activity for inhibiting carbonic anhydrase (CA); assay type: biochemical; conditions: 4-nitrophenyl acetate substrate
Protocol: CA is a zinc metalloenzyme family which catalyzes reversible hydration between carbon dioxide, and bicarbonate and proton.
As a substance for decomposition by CA-II, 4-nitrophenyl acetate was used herein. 4-Nitrophenyl acetate is […] with CA-II to produce 4-nitrophenol. […] To the diluted solution were added […] (final concentration: 5 mmol/L) and the present compound of each concentration, and the mixture was incubated at 37° C. under shading for 30 minutes. […] The IC50 of the compound was obtained through the two-parameter logistic model with the inhibitory rate data in each concentration which was obtained from plural trials.

[2] = test system: unilateral lesion model of nigrostriatal dopamine neuron induced with 6-OHDA; assay: Anti-tremor effect in 6-OHDA unilateral lesion model; assay type: in vivo, rat; conditions: 3 mg/kg oral, counted 10 minutes one hour later
Text: A unilateral lesion model of nigrostriatal dopamine neuron induced with 6-OHDA is broadly used for evaluating the drug efficacy for treating Parkinson's disease, as shown in Test 3. In addition, the present model is known to present with jaw tremor which corresponds to the tremor frequency in a patient of Parkinson's disease, thus which is also expected to be a tremor model in Parkinson's disease. With the present model, the effect of the present compound for inhibiting the tremor in Parkinson's disease was evaluated. According to the procedure described in Test 3, a unilateral lesion model of nigrostriatal dopamine neuron was prepared. The compound of Example 13 (3 mg/kg) was orally administered to the model rat. One hour later, the number of tremulous jaw movements was counted for 10 minutes.

human Cav3.3, sequence (Q9P0X4 whole entry): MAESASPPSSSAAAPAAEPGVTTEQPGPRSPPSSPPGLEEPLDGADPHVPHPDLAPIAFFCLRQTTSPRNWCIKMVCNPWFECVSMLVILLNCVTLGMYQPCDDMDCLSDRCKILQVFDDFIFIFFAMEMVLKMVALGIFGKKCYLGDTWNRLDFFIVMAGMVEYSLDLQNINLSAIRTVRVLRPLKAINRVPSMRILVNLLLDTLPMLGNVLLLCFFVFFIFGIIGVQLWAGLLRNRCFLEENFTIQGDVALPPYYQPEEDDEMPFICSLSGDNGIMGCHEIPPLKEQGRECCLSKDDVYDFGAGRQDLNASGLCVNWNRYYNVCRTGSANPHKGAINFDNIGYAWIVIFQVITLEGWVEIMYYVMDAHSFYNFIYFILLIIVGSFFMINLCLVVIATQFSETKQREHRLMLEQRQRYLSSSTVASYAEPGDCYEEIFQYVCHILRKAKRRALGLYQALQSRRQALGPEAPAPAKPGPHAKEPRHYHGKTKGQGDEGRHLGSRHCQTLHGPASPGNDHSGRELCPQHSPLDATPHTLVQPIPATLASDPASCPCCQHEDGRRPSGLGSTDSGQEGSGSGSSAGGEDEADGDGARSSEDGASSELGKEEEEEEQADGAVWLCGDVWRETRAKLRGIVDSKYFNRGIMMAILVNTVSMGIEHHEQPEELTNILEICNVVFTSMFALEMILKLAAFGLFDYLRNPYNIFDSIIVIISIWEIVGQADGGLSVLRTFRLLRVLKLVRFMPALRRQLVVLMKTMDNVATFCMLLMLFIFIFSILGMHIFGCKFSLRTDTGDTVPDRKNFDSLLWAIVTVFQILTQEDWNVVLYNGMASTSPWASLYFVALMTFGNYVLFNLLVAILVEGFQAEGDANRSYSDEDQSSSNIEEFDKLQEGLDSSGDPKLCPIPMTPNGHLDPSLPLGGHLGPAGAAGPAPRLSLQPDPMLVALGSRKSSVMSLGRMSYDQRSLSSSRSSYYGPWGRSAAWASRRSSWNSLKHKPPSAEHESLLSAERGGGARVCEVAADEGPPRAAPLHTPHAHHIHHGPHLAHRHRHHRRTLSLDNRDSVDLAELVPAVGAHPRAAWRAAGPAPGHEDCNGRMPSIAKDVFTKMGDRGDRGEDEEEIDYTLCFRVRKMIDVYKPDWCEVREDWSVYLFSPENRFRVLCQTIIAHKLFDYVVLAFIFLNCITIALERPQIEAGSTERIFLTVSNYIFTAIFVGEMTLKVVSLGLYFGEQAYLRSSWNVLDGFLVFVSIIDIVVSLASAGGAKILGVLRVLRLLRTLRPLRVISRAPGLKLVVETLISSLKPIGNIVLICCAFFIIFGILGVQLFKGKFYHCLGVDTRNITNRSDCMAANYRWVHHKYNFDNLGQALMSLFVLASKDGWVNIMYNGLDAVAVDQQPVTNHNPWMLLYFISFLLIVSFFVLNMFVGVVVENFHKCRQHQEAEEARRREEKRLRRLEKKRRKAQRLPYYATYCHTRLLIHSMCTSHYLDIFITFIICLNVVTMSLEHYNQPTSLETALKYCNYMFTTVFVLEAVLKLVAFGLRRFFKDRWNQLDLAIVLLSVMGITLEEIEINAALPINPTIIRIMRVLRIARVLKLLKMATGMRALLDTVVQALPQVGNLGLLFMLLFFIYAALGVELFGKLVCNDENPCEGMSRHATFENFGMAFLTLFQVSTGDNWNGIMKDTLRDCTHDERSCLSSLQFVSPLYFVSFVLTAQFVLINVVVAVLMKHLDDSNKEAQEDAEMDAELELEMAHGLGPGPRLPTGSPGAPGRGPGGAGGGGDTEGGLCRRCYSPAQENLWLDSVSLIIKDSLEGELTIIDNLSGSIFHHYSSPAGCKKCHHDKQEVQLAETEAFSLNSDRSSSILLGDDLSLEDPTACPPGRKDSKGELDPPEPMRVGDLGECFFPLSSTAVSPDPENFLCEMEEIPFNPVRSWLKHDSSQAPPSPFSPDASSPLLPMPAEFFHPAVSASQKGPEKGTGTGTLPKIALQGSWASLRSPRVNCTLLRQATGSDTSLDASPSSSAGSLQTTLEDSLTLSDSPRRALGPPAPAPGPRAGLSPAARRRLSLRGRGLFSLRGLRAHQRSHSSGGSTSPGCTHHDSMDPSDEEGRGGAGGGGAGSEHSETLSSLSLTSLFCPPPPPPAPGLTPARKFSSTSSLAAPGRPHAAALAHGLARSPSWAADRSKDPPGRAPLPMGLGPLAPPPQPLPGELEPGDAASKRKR
human Cav3.1, sequence (O43497 whole entry): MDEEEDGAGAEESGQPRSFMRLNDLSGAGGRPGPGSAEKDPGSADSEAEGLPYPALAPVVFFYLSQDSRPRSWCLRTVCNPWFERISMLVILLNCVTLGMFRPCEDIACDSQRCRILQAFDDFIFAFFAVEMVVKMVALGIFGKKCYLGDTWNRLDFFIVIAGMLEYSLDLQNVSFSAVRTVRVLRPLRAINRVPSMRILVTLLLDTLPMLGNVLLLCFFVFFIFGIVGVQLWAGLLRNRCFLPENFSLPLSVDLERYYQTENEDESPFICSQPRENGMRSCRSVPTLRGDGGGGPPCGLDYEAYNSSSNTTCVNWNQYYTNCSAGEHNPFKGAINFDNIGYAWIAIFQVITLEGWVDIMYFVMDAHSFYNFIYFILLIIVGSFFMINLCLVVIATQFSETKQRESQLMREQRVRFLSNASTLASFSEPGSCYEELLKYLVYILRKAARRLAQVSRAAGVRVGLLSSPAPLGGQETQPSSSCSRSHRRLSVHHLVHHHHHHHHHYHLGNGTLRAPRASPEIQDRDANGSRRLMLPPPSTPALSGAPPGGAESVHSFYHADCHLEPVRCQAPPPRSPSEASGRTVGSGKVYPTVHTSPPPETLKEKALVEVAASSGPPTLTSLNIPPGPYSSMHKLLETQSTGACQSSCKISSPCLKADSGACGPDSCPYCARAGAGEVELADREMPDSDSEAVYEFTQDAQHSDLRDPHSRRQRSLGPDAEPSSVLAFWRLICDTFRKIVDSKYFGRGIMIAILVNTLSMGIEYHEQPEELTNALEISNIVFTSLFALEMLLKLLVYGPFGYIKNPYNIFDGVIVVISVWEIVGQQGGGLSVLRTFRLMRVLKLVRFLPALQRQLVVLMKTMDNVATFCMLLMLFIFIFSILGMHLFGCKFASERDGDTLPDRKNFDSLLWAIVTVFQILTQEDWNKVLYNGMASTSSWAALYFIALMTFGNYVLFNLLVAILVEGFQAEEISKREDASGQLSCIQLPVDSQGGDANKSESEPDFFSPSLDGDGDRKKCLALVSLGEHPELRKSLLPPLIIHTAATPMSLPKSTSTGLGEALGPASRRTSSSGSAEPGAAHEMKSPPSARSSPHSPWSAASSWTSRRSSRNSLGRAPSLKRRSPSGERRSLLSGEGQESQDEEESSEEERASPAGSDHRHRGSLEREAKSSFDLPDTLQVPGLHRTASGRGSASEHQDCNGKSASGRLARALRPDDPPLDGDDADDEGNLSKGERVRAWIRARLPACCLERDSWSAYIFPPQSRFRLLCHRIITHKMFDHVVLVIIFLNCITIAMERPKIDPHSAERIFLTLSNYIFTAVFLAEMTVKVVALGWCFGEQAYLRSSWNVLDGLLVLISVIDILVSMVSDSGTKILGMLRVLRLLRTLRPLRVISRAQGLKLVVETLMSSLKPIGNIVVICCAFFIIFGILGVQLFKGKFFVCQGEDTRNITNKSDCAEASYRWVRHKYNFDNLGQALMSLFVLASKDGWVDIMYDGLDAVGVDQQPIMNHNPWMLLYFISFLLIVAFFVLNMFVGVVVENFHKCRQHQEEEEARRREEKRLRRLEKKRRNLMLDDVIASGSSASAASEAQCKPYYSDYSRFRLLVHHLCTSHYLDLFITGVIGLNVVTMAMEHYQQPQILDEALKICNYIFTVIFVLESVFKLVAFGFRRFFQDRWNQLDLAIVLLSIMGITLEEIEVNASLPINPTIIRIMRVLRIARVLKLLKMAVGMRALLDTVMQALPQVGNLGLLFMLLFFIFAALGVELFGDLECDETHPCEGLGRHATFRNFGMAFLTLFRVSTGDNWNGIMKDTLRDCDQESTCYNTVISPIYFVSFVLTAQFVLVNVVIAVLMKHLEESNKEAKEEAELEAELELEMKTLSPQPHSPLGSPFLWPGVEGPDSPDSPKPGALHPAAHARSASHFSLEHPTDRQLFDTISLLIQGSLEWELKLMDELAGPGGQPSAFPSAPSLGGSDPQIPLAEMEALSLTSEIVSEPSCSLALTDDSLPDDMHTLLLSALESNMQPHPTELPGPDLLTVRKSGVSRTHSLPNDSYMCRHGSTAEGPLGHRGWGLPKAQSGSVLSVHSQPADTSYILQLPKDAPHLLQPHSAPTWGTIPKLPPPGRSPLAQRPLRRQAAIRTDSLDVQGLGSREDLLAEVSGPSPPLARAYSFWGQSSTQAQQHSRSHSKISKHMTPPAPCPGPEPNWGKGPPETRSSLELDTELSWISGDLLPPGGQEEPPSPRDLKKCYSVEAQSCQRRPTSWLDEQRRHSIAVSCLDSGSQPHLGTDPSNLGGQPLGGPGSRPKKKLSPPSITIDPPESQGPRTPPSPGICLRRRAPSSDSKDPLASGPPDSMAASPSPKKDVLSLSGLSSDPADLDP

Compound	Cav3.1 % inhibitory rate (human Cav3.1; 600 μmol/L)	IC50 (human Cav3.1)	Cav3.2 % inhibitory rate (human Cav3.2; 600 μmol/L)	IC50 (human Cav3.2)	Cav3.3 % inhibitory rate (human Cav3.3; 600 μmol/L)	IC50 (human Cav3.3)	harmaline-induced tremor intensity [1]	IC50 (human CA-II)	inhibition at 600 µM (human Cav3.1; HEK293, 600 μmol/L, read-out: Cav3.1 % inhibitory rate)	inhibition at 600 µM (human Cav3.2; HEK293, 600 μmol/L, read-out: Cav3.2 % inhibitory rate)	inhibition at 600 µM (human Cav3.3; HEK293, 600 μmol/L, read-out: Cav3.3 % inhibitory rate)	number of tremulous jaw movements [2]
CC(c1noc2ccccc12)S(N)(=O)=O (centres unmarked) [Example 1, 1-(Benzo[d]isoxazol-3-yl)ethane-1-sulfonamide]	46.0%	449 µM	33.0%	848 µM	30.7%	922 µM	inhibited harmaline-induced tremor	26.5 µM	–	–	–	–
C[C@H](c1noc2ccccc12)S(N)(=O)=O [Example 13, (1R)-1-(1,2-benzoxazol-3-yl)ethane-1-sulfonamide]	–	465 µM	–	713 µM	–	746 µM	inhibited harmaline-induced tremor	18.2 µM	50.9%	42.6%	39.9%	significantly decreased the number of tremulous jaw movements per unit time
